Paper PMC5469811, “Identification of GXXXXG motif in Chrysophsin-1 and its implication in the design of analogs with cell-selective antimicrobial and anti-endotoxin activities” (Scientific Reports, 2017)
In brackets after ≈: the same amount, converted by molar mass.

Key:
Test in all cases: microbe, parasite or virus in culture
Assay type in all cases: cell-based
[1] = system: Candida albicans (ATCC 10231); conditions: ATCC10231; Candida albicans (ATCC 10231); NCCLS micro broth dilution, 35 °C, 48 h, absorbance 492 nm; read-out: Minimum inhibitory concentration (MIC)
Method: (§1) The anti- fungal activity of peptides was performed according to the standard micro broth dilution technique as per NCCLS guidelines. These plates were incubated in a moist chamber at 35 °C, and an absorbance at 492 nm was recorded on a VersaMax microplate reader after 48 h for C. albicans ATCC 10231 and C. parapsilosis ATCC 22019 and 72 h for C. neoformans.

[2] = system: Candida parapsilosis (ATCC 22019); conditions: ATCC22019; Candida parapsilosis (ATCC 22019); NCCLS micro broth dilution, 35 °C, 48 h, absorbance 492 nm; read-out: Minimum inhibitory concentration (MIC)
Method: as §1

Cryptococcus neoformans = conditions: Cryptococcus neoformans; NCCLS micro broth dilution, 35 °C, 72 h, absorbance 492 nm; read-out: Minimum inhibitory concentration (MIC)
Method: as §1

[3] = system: Sporothrix schenckii (Patient isolates); conditions: Sporothrix schenckii (patient isolates); NCCLS micro broth dilution, 35 °C; read-out: Minimum inhibitory concentration (MIC)

## OC(Cn1cncn1)(Cn1cncn1)c1ccc(F)cc1F [Fluconazole, reference compound]
[1]
  MIC: 3.26 µM (≈ 0.998 µg/mL)
[2]
  MIC: 6.53 µM (≈ 2 µg/mL)
Cryptococcus neoformans
  MIC: 6.53 µM (≈ 2 µg/mL)
[3]
  MIC: 6.53 µM (≈ 2 µg/mL)
